Source: US20200231638A1, “STABILIZED ANTI-MICROBIAL PEPTIDES” (priority 2015, published 2020)
Bridge positions count the residues as written; N and C are the ends. Square brackets hold non-standard residues; d marks the D form. Peptide text beside a SMILES is read from it. R8 = C=CCCCCCC[C@@](C)(N)C(=O)O; S5 = C=CCCC[C@](C)(N)C(=O)O; Nle = CCCC[C@H](N)C(=O)O

Assays:
E. coli = type: cell-based, Escherichia coli
Method in brief: (§1)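 MIC read as the minimum peptide concentration showing no visible growth after 20-24 hours at 37° C. Cultures were grown overnight, then regrown several hours before testing. Medium was MHB refined by anion exchange to strip polyanions; final inoculum 5×10^5 CFU/ml.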

B. cereus = type: cell-based, Bacillus cereus
Method in brief: as §1

S. aureus = type: cell-based, Staphylococcus aureus
Method in brief: as §1

P. aeruginosa = type: cell-based, Pseudomonas aeruginosa
Method in brief: as §1

human red blood cells = type: cell-based; details: red cells of human, 1 h, 25
Method in brief: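 Washed human RBCs as 1% (v/v) suspension in phosphate-buffered saline incubated 1 h at 37° C with serially diluted peptides. Hemoglobin release in supernatant measured spectrophotometrically (570 nm), % hemolysis relative to untreated and 1% Triton-X100 controls; MHC defined as concentration giving less than 1% release.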

| Compound | MIC E. coli (E. coli) [µg/mL] | MIC B. cereus (B. cereus) [µg/mL] | MIC S. aureus (S. aureus) [µg/mL] | MIC P. aeruginosa (P. aeruginosa) [µg/mL] | % Hemolysis at 25 μg/ml (human red blood cells) [%] |
| --- | --- | --- | --- | --- | --- |
| CCCC[C@H](NC(=O)[C@@H](NC(=O)[C@H](CCC(=O)O)NC(=O)CNC(=O)[C@@H](NC(=O)[C@H](Cc1ccccc1)NC(=O)[C@H](C)NC(=O)[C@H](CCCCN)NC(=O)[C@]1(C)CCCC=CCCCCCC[C@@](C)(NC(=O)[C@H](Cc2ccccc2)NC(=O)[C@H](CCCCN)NC(=O)CNC(=O)[C@@H](NC(=O)CN)[C@@H](C)CC)C(=O)N[C@@H](Cc2c[nH]cn2)C(=O)N[C@@H](CO)C(=O)N[C@@H](C)C(=O)N[C@@H](CCCCN)C(=O)N[C@@H](CCCCN)C(=O)N[C@@H](Cc2ccccc2)C(=O)N1)C(C)C)[C@@H](C)CC)C(=O)N[C@@H](CC(N)=O)C(=O)N[C@@H](CO)C(N)=O [Mag(i + 7)5] (H-GIGKF[R8]HSAKKF[S5]KAFVGEI[Nle]NS-NH2; staple 6-13 (inferred); N-terminus and C-terminus assumed) | 3.1 | 3.1 | 6.2 | 3.1 | 87.0 |
| CCCC[C@H](NC(=O)[C@@H](NC(=O)[C@H](CCC(=O)O)NC(=O)CNC(=O)[C@@H](NC(=O)[C@H](Cc1ccccc1)NC(=O)[C@H](C)NC(=O)[C@]1(C)CCCC=CCCCCCC[C@@](C)(NC(=O)[C@H](CC(C)C)NC(=O)[C@H](Cc2ccccc2)NC(=O)[C@H](CCCCN)NC(=O)CNC(=O)[C@@H](NC(=O)CN)[C@@H](C)CC)C(=O)N[C@@H](CO)C(=O)N[C@@H](C)C(=O)N[C@@H](CCCCN)C(=O)N[C@@H](CCCCN)C(=O)N[C@@H](Cc2ccccc2)C(=O)NCC(=O)N1)C(C)C)[C@@H](C)CC)C(=O)N[C@@H](CC(N)=O)C(=O)N[C@@H](CO)C(N)=O [Mag(i + 7)6] (H-GIGKFL[R8]SAKKFG[S5]AFVGEI[Nle]NS-NH2; staple 7-14 (inferred); N-terminus and C-terminus assumed) | 3.1 | 6.2 | 6.2 | 25 | 47.1 |
| CCCC[C@H](NC(=O)[C@@H](NC(=O)[C@H](CCC(=O)O)NC(=O)CNC(=O)[C@@H](NC(=O)[C@H](Cc1ccccc1)NC(=O)[C@]1(C)CCCC=CCCCCCC[C@@](C)(NC(=O)[C@H](Cc2c[nH]cn2)NC(=O)[C@H](CC(C)C)NC(=O)[C@H](Cc2ccccc2)NC(=O)[C@H](CCCCN)NC(=O)CNC(=O)[C@@H](NC(=O)CN)[C@@H](C)CC)C(=O)N[C@@H](C)C(=O)N[C@@H](CCCCN)C(=O)N[C@@H](CCCCN)C(=O)N[C@@H](Cc2ccccc2)C(=O)NCC(=O)N[C@@H](CCCCN)C(=O)N1)C(C)C)[C@@H](C)CC)C(=O)N[C@@H](CC(N)=O)C(=O)N[C@@H](CO)C(N)=O [Mag(i + 7)7] (H-GIGKFLH[R8]AKKFGK[S5]FVGEI[Nle]NS-NH2; staple 8-15 (inferred); N-terminus and C-terminus assumed) | 3.1 | 3.1 | 3.1 | 6.2 | 95.5 |
| CCCC[C@H](NC(=O)[C@@H](NC(=O)[C@H](CCC(=O)O)NC(=O)CNC(=O)[C@@H](NC(=O)[C@]1(C)CCCC=CCCCCCC[C@@](C)(NC(=O)[C@H](CO)NC(=O)[C@H](Cc2c[nH]cn2)NC(=O)[C@H](CC(C)C)NC(=O)[C@H](Cc2ccccc2)NC(=O)[C@H](CCCCN)NC(=O)CNC(=O)[C@@H](NC(=O)CN)[C@@H](C)CC)C(=O)N[C@@H](CCCCN)C(=O)N[C@@H](CCCCN)C(=O)N[C@@H](Cc2ccccc2)C(=O)NCC(=O)N[C@@H](CCCCN)C(=O)N[C@@H](C)C(=O)N1)C(C)C)[C@@H](C)CC)C(=O)N[C@@H](CC(N)=O)C(=O)N[C@@H](CO)C(N)=O [Mag(i + 7)8] (H-GIGKFLHS[R8]KKFGKA[S5]VGEI[Nle]NS-NH2; staple 9-16 (inferred); N-terminus and C-terminus assumed) | 1.6 | 3.1 | 6.2 | 3.1 | 85.4 |
| CCCC[C@H](NC(=O)[C@@H](NC(=O)[C@H](CCC(=O)O)NC(=O)CNC(=O)[C@]1(C)CCCC=CCCCCCC[C@@](C)(NC(=O)[C@H](C)NC(=O)[C@H](CO)NC(=O)[C@H](Cc2c[nH]cn2)NC(=O)[C@H](CC(C)C)NC(=O)[C@H](Cc2ccccc2)NC(=O)[C@H](CCCCN)NC(=O)CNC(=O)[C@@H](NC(=O)CN)[C@@H](C)CC)C(=O)N[C@@H](CCCCN)C(=O)N[C@@H](Cc2ccccc2)C(=O)NCC(=O)N[C@@H](CCCCN)C(=O)N[C@@H](C)C(=O)N[C@@H](Cc2ccccc2)C(=O)N1)[C@@H](C)CC)C(=O)N[C@@H](CC(N)=O)C(=O)N[C@@H](CO)C(N)=O [Mag(i + 7)9] (H-GIGKFLHSA[R8]KFGKAF[S5]GEI[Nle]NS-NH2; staple 10-17 (inferred); N-terminus and C-terminus assumed) | 3.1 | 3.1 | 3.1 | 3.1 | 94.6 |
| CCCC[C@H](NC(=O)[C@@H](NC(=O)[C@H](CCC(=O)O)NC(=O)[C@]1(C)CCCC=CCCCCCC[C@@](C)(NC(=O)[C@H](CCCCN)NC(=O)[C@H](C)NC(=O)[C@H](CO)NC(=O)[C@H](Cc2c[nH]cn2)NC(=O)[C@H](CC(C)C)NC(=O)[C@H](Cc2ccccc2)NC(=O)[C@H](CCCCN)NC(=O)CNC(=O)[C@@H](NC(=O)CN)[C@@H](C)CC)C(=O)N[C@@H](Cc2ccccc2)C(=O)NCC(=O)N[C@@H](CCCCN)C(=O)N[C@@H](C)C(=O)N[C@@H](Cc2ccccc2)C(=O)N[C@@H](C(C)C)C(=O)N1)[C@@H](C)CC)C(=O)N[C@@H](CC(N)=O)C(=O)N[C@@H](CO)C(N)=O [Mag(i + 7)10] (H-GIGKFLHSAK[R8]FGKAFV[S5]EI[Nle]NS-NH2; staple 11-18) | 3.1 | 6.2 | 3.1 | 6.2 | 53.1 |
| CCCC[C@H](NC(=O)[C@@H](NC(=O)[C@]1(C)CCCC=CCCCCCC[C@@](C)(NC(=O)[C@H](CCCCN)NC(=O)[C@H](CCCCN)NC(=O)[C@H](C)NC(=O)[C@H](CO)NC(=O)[C@H](Cc2c[nH]cn2)NC(=O)[C@H](CC(C)C)NC(=O)[C@H](Cc2ccccc2)NC(=O)[C@H](CCCCN)NC(=O)CNC(=O)[C@@H](NC(=O)CN)[C@@H](C)CC)C(=O)NCC(=O)N[C@@H](CCCCN)C(=O)N[C@@H](C)C(=O)N[C@@H](Cc2ccccc2)C(=O)N[C@@H](C(C)C)C(=O)NCC(=O)N1)[C@@H](C)CC)C(=O)N[C@@H](CC(N)=O)C(=O)N[C@@H](CO)C(N)=O [Mag(i + 7)11] (H-GIGKFLHSAKK[R8]GKAFVG[S5]I[Nle]NS-NH2; staple 12-19 (inferred); N-terminus and C-terminus assumed) | 1.6 | 3.1 | 3.1 | 1.6 | 84.8 |
| CCCC[C@H](NC(=O)[C@]1(C)CCCC=CCCCCCC[C@@](C)(NC(=O)[C@H](Cc2ccccc2)NC(=O)[C@H](CCCCN)NC(=O)[C@H](CCCCN)NC(=O)[C@H](C)NC(=O)[C@H](CO)NC(=O)[C@H](Cc2c[nH]cn2)NC(=O)[C@H](CC(C)C)NC(=O)[C@H](Cc2ccccc2)NC(=O)[C@H](CCCCN)NC(=O)CNC(=O)[C@@H](NC(=O)CN)[C@@H](C)CC)C(=O)N[C@@H](CCCCN)C(=O)N[C@@H](C)C(=O)N[C@@H](Cc2ccccc2)C(=O)N[C@@H](C(C)C)C(=O)NCC(=O)N[C@@H](CCC(=O)O)C(=O)N1)C(=O)N[C@@H](CC(N)=O)C(=O)N[C@@H](CO)C(N)=O [Mag(i + 7)12] (H-GIGKFLHSAKKF[R8]KAFVGE[S5][Nle]NS-NH2; staple 13-20 (inferred); N-terminus and C-terminus assumed) | 1.6 | 3.1 | 12.5 | 3.1 | 80.3 |
| CC[C@H](C)[C@H](NC(=O)CN)C(=O)NCC(=O)N[C@@H](CCCCN)C(=O)N[C@@H](Cc1ccccc1)C(=O)N[C@@H](CC(C)C)C(=O)N[C@@H](Cc1c[nH]cn1)C(=O)N[C@@H](CO)C(=O)N[C@@H](C)C(=O)N[C@@H](CCCCN)C(=O)N[C@@H](CCCCN)C(=O)N[C@@H](Cc1ccccc1)C(=O)NCC(=O)N[C@]1(C)CCCCCCC=CCCC[C@@](C)(C(=O)N[C@@H](CC(N)=O)C(=O)N[C@@H](CO)C(N)=O)NC(=O)[C@H]([C@@H](C)CC)NC(=O)[C@H](CCC(=O)O)NC(=O)CNC(=O)[C@H](C(C)C)NC(=O)[C@H](Cc2ccccc2)NC(=O)[C@H](C)NC1=O [Mag(i + 7)13] (H-GIGKFLHSAKKFG[R8]AFVGEI[S5]NS-NH2; staple 14-21 (inferred); N-terminus and C-terminus assumed) | 1.6 | 3.1 | 12.5 | 6.2 | 63.6 |
| CCCC[C@@H]1NC(=O)[C@H]([C@@H](C)CC)NC(=O)[C@H](CCC(=O)O)NC(=O)CNC(=O)[C@H](C(C)C)NC(=O)[C@H](Cc2ccccc2)NC(=O)[C@](C)(NC(=O)[C@H](CCCCN)NC(=O)CNC(=O)[C@H](Cc2ccccc2)NC(=O)[C@H](CCCCN)NC(=O)[C@H](CCCCN)NC(=O)[C@H](C)NC(=O)[C@H](CO)NC(=O)[C@H](Cc2c[nH]cn2)NC(=O)[C@H](CC(C)C)NC(=O)[C@H](Cc2ccccc2)NC(=O)[C@H](CCCCN)NC(=O)CNC(=O)[C@@H](NC(=O)CN)[C@@H](C)CC)CCCCCCC=CCCC[C@@](C)(C(=O)N[C@@H](CO)C(N)=O)NC1=O [Mag(i + 7)14] (H-GIGKFLHSAKKFGK[R8]FVGEI[Nle][S5]S-NH2; staple 15-22 (inferred); N-terminus and C-terminus assumed) | 1.6 | 1.6 | 1.6 | 6.2 | 68.1 |
